From ChEMBL document CHEMBL3124800, “HTS followed by NMR based counterscreening. Discovery and optimization of pyrimidones as reversible and competitive inhibitors of xanthine oxidase” (Bioorg Med Chem Lett, 2014) come the findings set out here.

≈ marks a conversion by molar mass, not a printed value.

For data set [1], the target named is Xanthine dehydrogenase/oxidase (Homo sapiens, UniProt P47989).
A short description of data set [2]: Intrinsic clearance in human liver microsomes. Format: ADME. The settings on record: read-out: CLH.
The nature of data set [3]: Solubility of the compound in phosphate buffer at pH 7.4.
Data set [4] can be described thus: Apparent permeability across basolateral side to apical side in human Caco2 cells. As to conditions: Caco-2; call rule not given here. For orientation: Passage across Caco-2 layers is used to estimate intestinal permeability.
Data set [5] can be described thus: Apparent permeability across apical side to basolateral side in human Caco2 cells. As to conditions: Caco-2.
Data set [6] can be described thus: Oral bioavailability in Han Wistar rat at 6 umol/kg. Format: ADME, organism-based. As to conditions: in vivo.
The nature of data set [7]: Cmax in Han Wistar rat at 6 umol/kg, po. Format: ADME, organism-based. Details: dose 6 umol/kg, route oral. As to conditions: in vivo.
In data set [8] the test system is Rattus norvegicus. The experiment in a line: Volume of distribution at steady state in Han Wistar rat at […]. Format: ADME, organism-based. As to conditions: in vivo.
The nature of data set [9]: Half life in Han Wistar rat at 1 umol/kg, iv. It counts as ADME, organism-based. The settings on record: in vivo.
Data set [10] can be described thus: Clearance in Han Wistar rat at 1 umol/kg, iv. It counts as ADME, organism-based. The settings on record: in vivo.
The nature of data set [11]: Plasma concentration in potassium oxonate-induced hyperuricemic Sprague-Dawley rat model at 10 mg/kg, po measured after 2 hrs. It counts as ADME, organism-based. Details: dose 10 mg/kg, route oral.
The test system of data set [12] is Rattus norvegicus. The experiment in a line: Antihyperuricemic activity in potassium oxonate-induced hyperuricemic Sprague-Dawley rat model assessed as decrease of uric acid level in serum at 10 mg/kg, po measured after 1 hr relative to vehicle-treated control. Format: functional. Details: scale not given: the % may be the effect or the level left.
Data set [13] concerns Rattus norvegicus. The experiment in a line: Antihyperuricemic activity in potassium oxonate-induced hyperuricemic Sprague-Dawley rat model assessed as decrease of uric acid level in serum at 10 mg/kg, po measured after 2 hrs relative to vehicle-treated control. It counts as functional. Details: scale not given: the % may be the effect or the level left.
In data set [14] the target is Xanthine dehydrogenase/oxidase (Rattus norvegicus, UniProt P22985). The experiment in a line: Inhibition of rat xanthine oxidase.
A further data set has as its system Hepatocyte. The experiment in a line: Intrinsic clearance in human hepatocytes assessed per million cells. It counts as ADME, cell-based.
Data set [15] has as its target T1, Xanthine dehydrogenase/oxidase (Bos taurus, UniProt P80457). Nature of the data set: Inhibition of bovine xanthine oxidase.
Data set [16] has as its target T1, Xanthine dehydrogenase/oxidase. Nature of the data set: Reversible inhibition of bovine xanthine oxidase. The settings on record: cattle.
For data set [17] the target is unchanged. The experiment in a line: Competitive inhibition of bovine xanthine oxidase.
The subject of a further data set is Plasma. Nature of the data set: Antihyperuricemic activity in potassium oxonate-induced hyperuricemic Sprague-Dawley rat model assessed as decrease of uric acid level in serum at 30 mg/kg, po measured after 2 hrs relative to vehicle-treated control. Format: functional. Details: scale not given: the % may be the effect or the level left.
In data set [18] the test system is Rattus norvegicus. The experiment in a line: Antihyperuricemic activity in potassium oxonate-induced hyperuricemic Sprague-Dawley rat model assessed as decrease of uric acid level in serum at 30 mg/kg, po measured after 1 hr relative to vehicle-treated control. Format: functional. Details: scale not given: the % may be the effect or the level left.

By IC50 is commonly meant the concentration that gives 50% inhibition. Broadly, the solubility is the dissolved amount per volume that the medium holds. For orientation: Papp B→A means how fast a substance crosses the layer from the basolateral side. What is called Papp A→B is how fast a substance crosses the layer from the apical side. Usually bioavailability stands for dose-corrected exposure relative to a reference, in per cent. As usually defined, the Cmax is the peak of the concentration-time curve. The half-life is how long it takes for the measured level to halve. By clearance is commonly meant a measure of how efficiently the substance is removed, as volume per time.

Xanthine dehydrogenase/oxidase (Homo sapiens, UniProt P47989), sequence (P47989 whole entry): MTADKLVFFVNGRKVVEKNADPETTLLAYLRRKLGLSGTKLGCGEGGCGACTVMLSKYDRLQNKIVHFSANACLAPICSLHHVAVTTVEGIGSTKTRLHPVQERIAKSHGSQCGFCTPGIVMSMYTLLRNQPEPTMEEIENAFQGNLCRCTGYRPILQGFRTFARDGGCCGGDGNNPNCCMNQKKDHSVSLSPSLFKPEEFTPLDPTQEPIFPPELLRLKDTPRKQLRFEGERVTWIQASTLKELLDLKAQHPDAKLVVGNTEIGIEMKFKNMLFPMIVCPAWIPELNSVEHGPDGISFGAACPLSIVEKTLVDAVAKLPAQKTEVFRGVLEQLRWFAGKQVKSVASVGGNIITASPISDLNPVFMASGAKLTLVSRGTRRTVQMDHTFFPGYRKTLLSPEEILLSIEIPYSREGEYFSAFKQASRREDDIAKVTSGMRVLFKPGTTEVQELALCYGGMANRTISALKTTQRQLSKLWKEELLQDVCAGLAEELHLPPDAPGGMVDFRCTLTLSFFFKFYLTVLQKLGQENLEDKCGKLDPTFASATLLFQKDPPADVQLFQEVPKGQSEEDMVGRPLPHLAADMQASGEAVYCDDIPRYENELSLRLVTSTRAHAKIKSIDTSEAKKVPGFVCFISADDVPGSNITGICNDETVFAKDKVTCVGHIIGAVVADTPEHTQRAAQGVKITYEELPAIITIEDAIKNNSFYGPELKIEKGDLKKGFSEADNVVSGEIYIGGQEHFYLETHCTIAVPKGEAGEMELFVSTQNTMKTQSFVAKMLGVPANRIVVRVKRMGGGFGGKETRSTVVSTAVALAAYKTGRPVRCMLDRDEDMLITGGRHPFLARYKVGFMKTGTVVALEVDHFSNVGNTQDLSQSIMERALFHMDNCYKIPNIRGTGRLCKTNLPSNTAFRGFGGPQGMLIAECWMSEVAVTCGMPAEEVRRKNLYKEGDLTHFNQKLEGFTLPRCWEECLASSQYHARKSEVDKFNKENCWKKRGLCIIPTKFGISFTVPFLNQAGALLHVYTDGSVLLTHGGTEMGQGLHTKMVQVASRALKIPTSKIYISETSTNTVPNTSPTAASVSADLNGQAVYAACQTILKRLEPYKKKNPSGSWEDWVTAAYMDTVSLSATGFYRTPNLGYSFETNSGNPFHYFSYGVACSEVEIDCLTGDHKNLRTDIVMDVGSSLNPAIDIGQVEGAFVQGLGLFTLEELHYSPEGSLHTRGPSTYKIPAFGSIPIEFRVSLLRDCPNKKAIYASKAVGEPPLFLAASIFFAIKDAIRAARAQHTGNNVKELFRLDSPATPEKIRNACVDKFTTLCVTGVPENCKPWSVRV
T1 sequence (P80457 whole entry): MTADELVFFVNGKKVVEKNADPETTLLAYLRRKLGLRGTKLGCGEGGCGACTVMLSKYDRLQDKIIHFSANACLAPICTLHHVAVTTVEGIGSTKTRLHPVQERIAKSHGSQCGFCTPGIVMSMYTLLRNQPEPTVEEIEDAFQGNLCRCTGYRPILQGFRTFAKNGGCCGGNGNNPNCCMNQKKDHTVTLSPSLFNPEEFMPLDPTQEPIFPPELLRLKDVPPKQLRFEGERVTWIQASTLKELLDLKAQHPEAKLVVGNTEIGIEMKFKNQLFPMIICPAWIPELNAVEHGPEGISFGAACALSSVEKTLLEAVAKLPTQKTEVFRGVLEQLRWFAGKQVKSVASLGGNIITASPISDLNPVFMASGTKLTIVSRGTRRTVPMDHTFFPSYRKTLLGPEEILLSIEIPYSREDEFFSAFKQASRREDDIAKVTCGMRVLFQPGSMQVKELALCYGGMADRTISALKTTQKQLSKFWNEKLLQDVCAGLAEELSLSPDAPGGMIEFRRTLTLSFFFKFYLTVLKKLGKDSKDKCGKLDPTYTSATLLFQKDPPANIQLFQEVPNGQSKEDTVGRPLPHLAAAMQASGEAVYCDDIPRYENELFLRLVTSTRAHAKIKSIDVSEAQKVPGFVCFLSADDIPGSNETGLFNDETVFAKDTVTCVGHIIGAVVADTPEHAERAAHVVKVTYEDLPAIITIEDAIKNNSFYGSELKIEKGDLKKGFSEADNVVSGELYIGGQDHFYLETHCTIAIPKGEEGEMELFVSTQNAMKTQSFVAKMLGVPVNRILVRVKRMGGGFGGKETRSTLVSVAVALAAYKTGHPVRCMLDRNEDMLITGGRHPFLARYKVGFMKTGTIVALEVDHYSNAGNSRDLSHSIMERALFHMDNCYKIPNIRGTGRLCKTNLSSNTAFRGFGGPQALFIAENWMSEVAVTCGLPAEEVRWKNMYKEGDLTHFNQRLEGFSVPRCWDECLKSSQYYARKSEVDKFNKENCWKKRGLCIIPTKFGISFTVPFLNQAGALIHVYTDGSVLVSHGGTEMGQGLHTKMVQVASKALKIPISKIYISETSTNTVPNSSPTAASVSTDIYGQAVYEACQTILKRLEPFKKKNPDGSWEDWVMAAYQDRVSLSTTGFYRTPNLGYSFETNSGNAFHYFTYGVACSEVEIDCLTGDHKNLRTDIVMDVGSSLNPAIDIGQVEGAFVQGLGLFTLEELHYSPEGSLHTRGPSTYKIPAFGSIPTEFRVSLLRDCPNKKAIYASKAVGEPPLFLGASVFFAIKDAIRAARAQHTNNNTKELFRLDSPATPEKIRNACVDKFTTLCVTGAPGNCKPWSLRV
Xanthine dehydrogenase/oxidase (Rattus norvegicus, UniProt P22985), sequence (P22985 whole entry): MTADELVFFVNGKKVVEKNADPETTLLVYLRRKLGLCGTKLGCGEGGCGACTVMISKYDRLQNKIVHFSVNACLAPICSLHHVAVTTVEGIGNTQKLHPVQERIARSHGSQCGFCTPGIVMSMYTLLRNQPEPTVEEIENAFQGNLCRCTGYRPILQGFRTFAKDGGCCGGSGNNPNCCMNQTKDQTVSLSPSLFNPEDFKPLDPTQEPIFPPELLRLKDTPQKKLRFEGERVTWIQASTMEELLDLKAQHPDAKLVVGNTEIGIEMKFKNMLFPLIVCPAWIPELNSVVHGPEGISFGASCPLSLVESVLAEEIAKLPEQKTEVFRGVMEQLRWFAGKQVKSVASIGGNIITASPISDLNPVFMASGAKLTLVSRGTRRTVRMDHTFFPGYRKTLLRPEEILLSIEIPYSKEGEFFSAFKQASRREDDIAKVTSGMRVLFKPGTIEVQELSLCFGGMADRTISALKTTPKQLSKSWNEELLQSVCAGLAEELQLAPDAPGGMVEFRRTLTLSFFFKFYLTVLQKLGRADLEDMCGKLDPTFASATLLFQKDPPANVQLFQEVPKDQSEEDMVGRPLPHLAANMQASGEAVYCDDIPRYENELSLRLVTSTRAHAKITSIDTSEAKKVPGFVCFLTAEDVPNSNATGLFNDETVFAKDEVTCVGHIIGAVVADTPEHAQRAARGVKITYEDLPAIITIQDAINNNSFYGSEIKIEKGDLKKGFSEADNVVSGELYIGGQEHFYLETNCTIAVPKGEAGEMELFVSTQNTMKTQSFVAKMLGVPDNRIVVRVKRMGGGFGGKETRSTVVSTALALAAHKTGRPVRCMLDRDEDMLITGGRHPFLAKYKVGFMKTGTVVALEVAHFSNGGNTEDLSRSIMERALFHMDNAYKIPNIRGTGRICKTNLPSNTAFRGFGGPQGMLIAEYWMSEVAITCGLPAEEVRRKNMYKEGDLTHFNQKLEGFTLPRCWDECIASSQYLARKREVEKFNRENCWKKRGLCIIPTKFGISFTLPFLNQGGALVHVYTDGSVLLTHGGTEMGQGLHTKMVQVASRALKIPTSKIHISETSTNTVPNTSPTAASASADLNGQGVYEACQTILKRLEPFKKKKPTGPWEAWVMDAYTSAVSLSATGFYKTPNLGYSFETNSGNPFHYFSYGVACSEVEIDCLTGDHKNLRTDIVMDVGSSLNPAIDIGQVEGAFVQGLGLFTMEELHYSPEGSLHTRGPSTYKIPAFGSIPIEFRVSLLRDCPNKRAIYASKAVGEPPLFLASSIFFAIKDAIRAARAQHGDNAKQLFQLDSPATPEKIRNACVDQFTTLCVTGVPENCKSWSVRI

Compound `COc1ccc(-c2cnc3nc[nH]c(=O)c3n2)cc1` had an IC50 in [1] of 15800 nM.
With `CC(C)COc1ccc(-c2cc(=O)[nH]c(N)n2)cc1`, the microsomal CLint in data set [2] turned out to be 42 µL/min/mg. The solubility in data set [3] is 23 µM (≈ 5.96 µg/mL).
On the same counts, the results for `CC(C)COc1ccc(-c2cc(=O)[nH]c(N)n2)cc1C#N` are 7.9 µL/min/mg and 140 µM (≈ 39.8 µg/mL).
As for `N#Cc1cc(-c2nc(N)[nH]c(=O)c2Cl)ccc1OCC1CCOC1` (stereo unspecified), the Papp B→A in data set [4] stood at 24 ×10⁻⁶ cm/s. Also, the apical-to-basolateral permeability (Papp A→B) in data set [5] was found to be 0.2 ×10⁻⁶ cm/s. For the same compound, in data set [2], the microsomal CLint came out at 3.4 µL/min/mg. In [3], this compound showed a solubility of 41 µM (≈ 14.2 µg/mL).
On the same counts, the results for `Cc1cc(-c2nc(N)[nH]c(=O)c2Cl)cc(C#N)c1OCC1CCOC1` (stereo unspecified) are 35 ×10⁻⁶ cm/s, 2.1 ×10⁻⁶ cm/s, 5.3 µL/min/mg and 83 µM (≈ 29.9 µg/mL).
With `Nc1nc(-c2ccc(OCC3CCOC3)c(C(F)(F)F)c2)c(Cl)c(=O)[nH]1` (stereo unspecified), the bioavailability in [6] was 33%. The compound further gave a Cmax in [7] of 270 nM. This compound also came in with a Vdss in the data set on Rattus norvegicus [8] of 5.7 L/kg. The compound also showed a half-life in data set [9] of 10 h. The same compound gave a clearance in [10] of 15 mL/min/kg. Also, in data set [4], the Papp B→A worked out at 69 ×10⁻⁶ cm/s. In addition, in data set [5], the Papp A→B came out at 8.4 ×10⁻⁶ cm/s. The microsomal CLint in [2] is 7.5 µL/min/mg. The solubility in [3] was 24 µM (≈ 9.35 µg/mL).
With `Nc1nc(-c2ccc(OCC3CCOC3)c(OC(F)(F)F)c2)c(Cl)c(=O)[nH]1` (stereo unspecified), in data set [11], the concentration at 2 h turned out to be 370 nM. Moreover, the Activity in the data set on Rattus norvegicus [12] came to 55%; in the data set with Rattus norvegicus [13], 54%. In addition, the bioavailability in data set [6] turned out to be 22%. Also, in data set [7], the Cmax came to 80 nM. Further, the Vdss in the data set with Rattus norvegicus [8] was found to be 13 L/kg. This compound had a half-life in [9] of 13.2 h. Also, the clearance in data set [10] worked out at 35 mL/min/kg. The Papp B→A in data set [4] was 74 ×10⁻⁶ cm/s. In addition, in data set [5], the Papp A→B came out at 6.4 ×10⁻⁶ cm/s. Also, the microsomal CLint in data set [2] was 18 µL/min/mg. Moreover, in data set [3], the solubility amounted to 45 µM (≈ 18.3 µg/mL). Besides, in data set [14], the IC50 was 7.94 nM.
Turning to `Nc1nc(-c2cccc(C(F)(F)F)c2)cc(=O)[nH]1`, the concentration in solution in data set [3] (solubility) came to 36 µM (≈ 9.19 µg/mL).
For the compound `Nc1nc(-c2cccc(OC(F)(F)F)c2)cc(=O)[nH]1`, in data set [2], the microsomal CLint is 3.2 µL/min/mg. The solubility in data set [3] was determined as 330 µM (≈ 89.5 µg/mL).
On to `Cc1cc(C#N)cc(-c2cc(=O)[nH]c(N)n2)c1`, for which the microsomal CLint in data set [2] stood at 1.2 µL/min/mg. Also, the concentration in solution in data set [3] (solubility) was 350 µM (≈ 79.2 µg/mL).
For the compound `N#Cc1cc(-c2cc(=O)[nH]c(N)n2)cc(C(F)(F)F)c1`, the microsomal CLint in data set [2] came out at 0.2 µL/min/mg. In data set [3], this compound registered a solubility of 430 µM (≈ 120 µg/mL).
In data set [3], `Nc1nc(-c2ccc(OCc3ccccc3)cc2)cc(=O)[nH]1` had a solubility of under 1 µM.
As to `CC(C)(C)COc1ccc(-c2cc(=O)[nH]c(N)n2)cc1`, in data set [2], the microsomal CLint is 6.9 µL/min/mg. In data set [3], the solubility came to 3.1 µM (≈ 0.847 µg/mL).
Turning to `Nc1nc(-c2ccc(OCCCCO)cc2)cc(=O)[nH]1`, the microsomal CLint in [2] was found to be 6.8 µL/min/mg. This compound came in with a solubility in data set [3] of 95 µM (≈ 26.2 µg/mL).
On the same counts, the results for `Nc1nc(-c2ccc(OCC3CCOC3)cc2)cc(=O)[nH]1` (stereo unspecified) are 21 µL/min/mg and 58 µM (≈ 16.7 µg/mL).
For `CC(C)COc1ccc(-c2nc(N)[nH]c(=O)c2C#N)cc1C#N`, the bioavailability in data set [6] is 5.5%. In [7], this compound gave a Cmax of 70 nM. Moreover, in the data set on Rattus norvegicus [8], the Vdss was found to be 2.5 L/kg. In data set [9], this compound showed a half-life of 19 h. Also, the clearance in [10] turned out to be 1.8 mL/min/kg. The Papp B→A in data set [4] is 30 ×10⁻⁶ cm/s. In data set [5], the Papp A→B turned out to be 0.1 ×10⁻⁶ cm/s. Moreover, the microsomal CLint in data set [2] is 4.1 µL/min/mg. For the same compound, the solubility in [3] was 14 µM (≈ 4.33 µg/mL).
Turning to `CC(C)COc1ccc(-c2nc(N)[nH]c(=O)c2Cl)cc1C#N`, in data set [2], the microsomal CLint came out at 16 µL/min/mg.
As for `CNc1nc(-c2ccc(OCC(C)C)c(C#N)c2)c(C#N)c(=O)[nH]1`, the microsomal CLint in [2] turned out to be 3.6 µL/min/mg. In [3], this compound had a solubility of 37 µM (≈ 12 µg/mL).
As to `N#Cc1cc(-c2nc(N)[nH]c(=O)c2Cl)ccc1OCCCCO`, the Papp B→A in data set [4] turned out to be 25.6 ×10⁻⁶ cm/s. The Papp A→B in [5] was 0.2 ×10⁻⁶ cm/s. Also, the microsomal CLint in [2] was found to be 1.7 µL/min/mg. Moreover, the concentration in solution in data set [3] (solubility) was 93 µM (≈ 31.1 µg/mL).
Taken in the same sequence, the figures for `N#Cc1cc(-c2nc(N)[nH]c(=O)c2C#N)ccc1OCC1CC1` were 31 ×10⁻⁶ cm/s, 0.1 ×10⁻⁶ cm/s, 1.7 µL/min/mg and 45 µM (≈ 13.8 µg/mL).
As to `N#Cc1c(-c2ccc(OCC3CCOC3)c(OC(F)(F)F)c2)nc(N)[nH]c1=O` (stereo unspecified), in data set [4], the Papp B→A turned out to be 29 ×10⁻⁶ cm/s. Also, the Papp A→B in data set [5] was determined as 0.1 ×10⁻⁶ cm/s. Besides, the microsomal CLint in data set [2] was 21 µL/min/mg. The concentration in solution in data set [3] (solubility) was 86 µM (≈ 34.1 µg/mL).
`CC(C)(C)COc1ccc(-c2nc(N)[nH]c(=O)c2C#N)cc1OC(F)(F)F`: in data set [4], the Papp B→A amounted to 4.1 ×10⁻⁶ cm/s. The apparent permeability from apical to basolateral (Papp A→B) in [5] was 0.4 ×10⁻⁶ cm/s. Further, the microsomal CLint in [2] stood at 36 µL/min/mg. Also, the solubility in data set [3] is 6 µM (≈ 2.29 µg/mL).
As to `CC(C)COc1ccc(-c2nc(N)[nH]c(=O)c2C#N)cc1C(F)(F)F`, the Papp B→A in data set [4] amounted to 23 ×10⁻⁶ cm/s. Moreover, in data set [5], the Papp A→B stood at 1.7 ×10⁻⁶ cm/s. Further, the microsomal CLint in [2] worked out at 8.5 µL/min/mg. This compound also showed a solubility in [3] of 1.2 µM (≈ 0.423 µg/mL).
In the data set with Hepatocyte, `CC(=O)Nc1ccc(-c2cc(=O)[nH]c(N)n2)cc1` had a CLH of 2.7 µL/min/1e6 cells.
The compound `c1ccc(-c2nn3c(-c4cnccn4)nnc3s2)cc1` showed an IC50 in data set [15] of 79.4 nM.
For `O=c1[nH]ccc2nc(-c3cccc(C(F)(F)F)c3)cn12`, the “inhibition (INH)” value in data set [16] is listed as “Active”. The IC50 in [17] was 398 nM.
As for `CC(=O)Nc1nc(-c2ccccc2)cc(=O)[nH]1`, the IC50 in [1] was over 100000 nM.
In data set [1], `CS(=O)(=O)Nc1nc(-c2ccccc2)cc(=O)[nH]1` showed a half-inhibitory concentration (IC50) of over 100000 nM.
Regarding `Cn1c(N)nc(-c2ccccc2)cc1=O`, the IC50 in data set [1] is over 100000 nM.
As to `Oc1ncnc2[nH]ncc12` [ALLOPURINOL], the results for the Activity with Plasma and with Rattus norvegicus [18] were 94% and 87%, respectively.
With `Nc1nc(-c2ccccc2)c(Br)c(=O)[nH]1` [BROPIRIMINE], the half-inhibitory concentration (IC50) in [1] was 1000 nM.
Turning to `Cc1nc(-c2ccc(OCC(C)C)c(C#N)c2)sc1C(=O)O` [FEBUXOSTAT], the concentration at 2 h in data set [11] came out at 8700 nM. Moreover, the Activity with Rattus norvegicus [12] was 78%; in the data set with Rattus norvegicus [13], 75%. In addition, the results for the 50% inhibitory concentration (IC50) in [1] and in [14] were 1.26 nM and 3.98 nM, respectively.
